Reference: patent publication US20220365087A1, “METHOD FOR ACQUIRING DATA FOR DISTINGUISHING PRESENCE OF CANCER CELLS AND/OR DISTINGUISHING ANTICANCER DRUG RESISTANCE, METHOD FOR ACQUIRING PREDICTION DATA, USE OF DISTINCTION MARKER IN SAME, AND DISTINGUISHING KIT” (KEIO UNIVERSITY, priority 2019, published 2022)

Legend:
[1] = system: plasmid (pcDNA3.1 empty vector) double strand DNA; experiment: Gel shift assay of DNA supercoiling disturbance by cisplatin; format: biochemical; details: 37° C. for 60 minutes; for effect on disturbance of double strand DNA supercoiling by cisplatin (CDDP): preincubation of plasmid with Na2Sn, then 60 μM CDDP
Method: To quantify the degree of DNA intercalation by cisplatin (CDDP) that disturbs DNA supercoiling, 1 μg of plasmid (pcDNA3.1 empty vector, #V79020, Invitrogen) was mixed with a predetermined concentration of Na2Sn (n=an integer of 1 to 4), and preincubated in 10 mM phosphate-buffered saline (PBS, pH6.0) at room temperature for 5 minutes. Then, a CDDP solution was added to the solution to obtain a final concentration of 60 μM. Thereafter, the mixed solution was incubated at 37° C. for 60 minutes. After the incubation, the reaction products in the mixed solution were separated by electrophoresis using 1% agarose gel for determination of the DNA secondary structure.
It was previously shown that cisplatin can disturb DNA supercoiling by being intercalated between bases of double-stranded DNA structures and causing structural changes (Non-patent Document 4). In this study, the present inventors determined in vitro that cisplatin induced change in the bulk molecular volume of supercoiling DNA, and the bulk molecular volume was recovered by addition of polysulfide (FIG. 3).
This can be inferred because of the enhanced reducing power of the polysulfide with the increase in the number of sulfur atoms.

[2] = system: ovarian serous carcinoma (SC); experiment: Effectiveness of the anticancer drug in ovarian serous carcinoma; format: in vivo
[3] = system: ovarian clear cell carcinoma (CCC); experiment: Effectiveness of the anticancer drug in ovarian clear cell carcinoma; format: in vivo

## [Na+].[Na+].[S-][S-] [Na2S2]
[1]
  effect on disturbance of double strand DNA supercoiling by cisplatin (CDDP): attenuated

## [Na+].[Na+].[S-]S[S-] [Na2S3]
[1]
  effect on disturbance of double strand DNA supercoiling by cisplatin (CDDP): attenuated

## [Na+].[Na+].[S-]SS[S-] [Na2S4]
[1]
  effect on disturbance of double strand DNA supercoiling by cisplatin (CDDP): attenuated

## [Na+].[Na+].[S-2] [Na2S]
[1]
  effect on disturbance of double strand DNA supercoiling by cisplatin (CDDP): attenuated

## N.N.[Cl][Pt][Cl] [cisplatin]
[2]
  effectiveness as an anticancer drug: more effective
[3]
  effectiveness as an anticancer drug: less effective
[1]; CDDP final concentration 60 μM, 1 μg plasmid, 1% agarose gel
  change in the bulk molecular volume of supercoiling double strand DNA: increased the bulk molecular volume of double strand DNA
